The values below come from patent US8173618B2, “Formulations for reducing neuronal degeneration” (University of Massachusetts, priority 2003, dated 2012).

Holding throughout (assay type): cell-based, human
In experiment [1] the test system is differentiated SH-SY-5Y cells. The experiment can be described thus: Intracellular ROS by DCFD fluorescence in differentiated SH-SY-5Y cells. The protocol: Cultured cells were used to test individual agents and formulations. In general, SH-SY-5Y human neuroblastoma cells were cultured in DMEM (Cellgro) containing 10% fetal bovine serum in 5% CO2.
For treatments with Abeta, differentiated cultures were transferred to medium without serum and treated for two hours with 20 μM Abeta25-35 (Sigma Chemical Co., St. Louis, Mo.). […] Louis, Mo.). In experiments calling for treatment of cell cultures with N-acetyl cysteine (NAC; NALC), cultures were treated with 10 mM NAC (Sigma Chemical Co., St. Louis, Mo.) after the culture was grown for two hours in serum-free medium.
Intracellular reactive oxygen species (ROS) were monitored as described in Ekinci et al., 1999 (J. Biol. Chem., 274:30322-30327). Briefly, cells were incubated for 30 minutes with dichloro-fluorescein diacetate (DCFD; acetoxymethyl ester; Molecular Probes, Inc., Eugene, Oreg.), which is used to detect intracellular peroxide levels. Incubation was followed by rinsing of cultures in serum-free medium and immediate capture of images using UV optics. Images were captured under epifluorescent and phase-contrast illumination using a DAGE CCL-72 cooled CCD camera via a Scion LG-3 frame grabber operated by NIH Image (see the Internet at rsb.info.nih.gov/nih-image). Images were then stored as PICT files on a Macintosh Power PC 7100AV for subsequent analysis. At least 100 cells in randomly-selected fields from duplicate cultures derived from multiple experiments were scored for fluorescent intensity using NIH Image analysis software. Representative background areas devoid of cells were similarly analyzed and subtracted from cell values to yield net densitometric values. All fields for each individual assay were illuminated, captured, and processed under identical settings. Corresponding phase-contrast images were obtained. Cell aggregates were excluded from the assays; only individual cells were quantified. Values were exported to Excel for statistical analyses using Student's t test.
For monitoring of intracellular peroxide concentrations as an index of ROS, cultures received 10 μl/ml DFCD (2′7′-dichlorofluorescein diacetate; Kodak) for 20 minutes. Cultures were then visualized under fluorescein UV optics (perikaryon; Ekinci and Shea, 1999, supra).

The test system of experiment [2] is differentiated SH-SY-5Y cells. Briefly: Externalized phosphatidylserine (meracyanine fluorescence) as index of apoptosis in SH-SY-5Y cells. The following applies: co-treatment with 50 μM ALCAR, 20 μM Abeta. The protocol: Levels of externalized phosphatidylserine (PS) were used as a measure of apoptosis (Rimon et al., 1997, J. Neurosci. Res., 48:563-570). Briefly, cultures were subjected to treatments then rinsed with PBS and incubated with 10 μl/ml merocyanine (Upstate Biotech, Lake Placid, N.Y.), followed by examination under rhodamine optics (Ekinci et al, 1999, J. Biol. Chem., 274:30322-30327).
The question of whether folate deficiency is associated with apoptosis was investigated. […] Overall detachment, a further sign of cell death, was evident by the seventh day in the serum-deprived cultures. The detachment phenomenon precluded longer experiments.
(§1) The effect of ALCAR on differentiated SH-SY-5Y cells treated with Abeta was examined. Cells were cultured in 20 μM Abeta in the presence and absence of ALCAR. Some cultures were pretreated with 50 μM ALCAR for 30 minutes. In these experiments, the ALCAR-containing medium was replaced with medium containing Abeta and no ALCAR then incubated for two hours before being assayed. Cultures were assayed for ROS, apoptosis, and ATP.

Experiment [3] relates to differentiated SH-SY-5Y cells. Briefly: ATP levels in Abeta-treated SH-SY-5Y cells. To be noted: co-treatment and prior treatment with 50 μM ALCAR. The protocol:
FIG. 11 is a bar graph showing the results of experiments examining apoptosis in which differentiated SH-SY-5Y cells cultured in the presence or absence of Abeta, with or without ALCAR for two hours, and assayed for ATP using spectrophotometric methods known in the art.
as §1

For the compound `CC(=O)O[C@H](CC(=O)[O-])C[N+](C)(C)C` [ALCAR, acetyl-L-carnitine], the “effect of Abeta on ROS generation” value in experiment [1] (co-treatment with 50 μM ALCAR, 20 μM Abeta) is given as “reduced the effect of Abeta on ROS generation”. The “Abeta neurotoxicity (ROS, apoptosis)” value in experiment [1] (pretreatment with 50 μM ALCAR for 30 minutes, followed by its removal) is “effective at preventing Abeta neurotoxicity”. In addition, in experiment [1] (single agent, control cells and cells exposed to Abeta, two hours), the ROS entry is reported as “reduced ROS”. Besides, the “effect of Abeta on apoptosis” value in experiment [2] is “reduced”. Moreover, the “Abeta-induced reduction in ATP levels” value in experiment [3] is “prevented this reduction in ATP levels”.
